Reference: PMC8482806, “A Novel Blood-Brain Barrier-Permeable Chemotherapeutic Agent for the Treatment of Glioblastoma” (Cureus, 2021)

How the values were obtained:
hLAT1 = biological target: T1, hLAT1 (Homo sapiens, UniProt Q01650); assay: Substrate transport inhibition, [3H]-gabapentin uptake in LLC-PK1 cells expressing hLAT1; type: cell-based
T1 construct: host or cells: LLC-PK1 (tetracycline-inducible, Invitrogen Gateway pT-REx System)
Description: (§1) Substrate transport inhibition studies were conducted with LLC-PK1 cells inducibly expressing either hLAT1 or hLAT2. Cells were plated in growth media with 1 μg/mL doxycycline at 30,000 cells/well in 96-well plates. Sixteen hours after plating, cells were treated with butyrate at a final concentration of 5 mM. The following day, cells were washed with PBS and incubated in the presence or absence of various concentrations of QBS10072S with 30,000 cpm/well of either [3H]-gabapentin (LAT1) or [3H]-leucine (LAT2) in PBS for 15 minutes at room temperature. The non-specific cell-bound activity was determined by the addition of 5 mM unlabeled gabapentin (LAT1) or leucine (LAT2). Unincorporated radioactivity was removed, and cells were washed three times with ice-cold PBS. Cells were lysed by adding scintillation fluid to each well, and cell-associated radioactivity was determined via scintillation counting using a multichannel 96-well plate reader (MicroBeta Trilux, Perkin Elmer, Waltham, MA). Data were expressed as the percent of specific radioactivity uptake in wells with no compound added. LC50s were determined by non-linear curve-fitting using GraphPad Prism (San Diego, CA).

hLAT2 = biological target: T2, hLAT2 (Homo sapiens, UniProt Q9UHI5); assay: Substrate transport inhibition, [3H]-leucine uptake in LLC-PK1 cells expressing hLAT2; type: cell-based
T2 construct: host or cells: LLC-PK1 (tetracycline-inducible, Invitrogen Gateway pT-REx System)
T2 sequence (Q9UHI5 1-535): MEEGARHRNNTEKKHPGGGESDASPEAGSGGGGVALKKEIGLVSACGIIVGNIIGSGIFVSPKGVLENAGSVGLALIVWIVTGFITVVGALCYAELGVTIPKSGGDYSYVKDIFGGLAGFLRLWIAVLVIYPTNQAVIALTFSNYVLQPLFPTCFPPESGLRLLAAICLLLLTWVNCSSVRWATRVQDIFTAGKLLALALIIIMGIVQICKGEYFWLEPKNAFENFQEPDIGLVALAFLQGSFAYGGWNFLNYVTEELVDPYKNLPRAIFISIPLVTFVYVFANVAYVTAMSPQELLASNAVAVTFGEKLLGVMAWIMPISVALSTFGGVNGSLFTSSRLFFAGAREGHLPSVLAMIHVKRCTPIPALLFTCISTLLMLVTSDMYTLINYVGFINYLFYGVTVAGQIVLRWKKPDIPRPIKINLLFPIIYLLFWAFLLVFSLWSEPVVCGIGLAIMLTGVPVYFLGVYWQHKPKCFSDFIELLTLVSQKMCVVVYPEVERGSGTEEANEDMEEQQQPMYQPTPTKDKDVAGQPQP
T2 sequence (P08195 1-529 partner): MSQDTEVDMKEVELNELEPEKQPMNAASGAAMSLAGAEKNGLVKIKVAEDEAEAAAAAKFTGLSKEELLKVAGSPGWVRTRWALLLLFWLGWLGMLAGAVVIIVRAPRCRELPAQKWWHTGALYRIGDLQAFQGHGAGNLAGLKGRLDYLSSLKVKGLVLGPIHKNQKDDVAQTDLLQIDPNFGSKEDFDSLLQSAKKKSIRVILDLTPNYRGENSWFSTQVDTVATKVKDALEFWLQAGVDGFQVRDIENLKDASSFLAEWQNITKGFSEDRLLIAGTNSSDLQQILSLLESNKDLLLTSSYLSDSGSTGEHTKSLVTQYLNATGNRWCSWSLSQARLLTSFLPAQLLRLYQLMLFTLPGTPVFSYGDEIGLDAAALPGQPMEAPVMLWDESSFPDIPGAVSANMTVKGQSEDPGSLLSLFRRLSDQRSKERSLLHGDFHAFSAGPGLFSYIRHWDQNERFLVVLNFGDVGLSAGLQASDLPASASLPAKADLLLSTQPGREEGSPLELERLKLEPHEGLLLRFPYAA
Description: as §1

[1] = Cytotoxicity in normal human astrocytes (CellTiter-Glo); type: cell-based; conditions: normal human astrocytes (NHA), read-out: LC50
Description: In vitro activity of QBS10072S was assessed using a modified clonogenic cell viability assay in 96-well clear-bottom plates. […] For GBM cell lines, 2000 cells/well were plated. On day 2 (GBM) or day 3 (LLC-PK1) after original plating, cells were washed twice with PBS and incubated with 50 μL of various concentrations of QBS10072S in PBS in at least quadruplicate. After 30 minutes at 37°C, 200 μL of growth medium was added to each well. Clonal populations were allowed to grow until the control wells (mock treatment) were near confluence (7 to 10 days). At this point, 170 μL media were removed and 60 μL CellTiter-Glo® (Promega, Madison, WI) were added to each well. Plates were placed on an orbital shaker for three minutes to lyse the cells and then incubated for an additional 10 minutes at RT to stabilize the luminescent signal. Luminescence was recorded using an EnSpire® Multimode Plate Reader (Perkin Elmer). Background (luminescence from wells incubated with 100 μM melphalan or lomustine) was subtracted and data were normalized to the control. EC50s were determined by non-linear regression using GraphPad Prism.
Cells were incubated with a titration of QBS10072S or melphalan and cell viability was measured by CellTiter-Glo. LC50 values for each compound were determined.

U87 cells = assay: WST1 cell viability assay, U87; type: cell-based; conditions: Homo sapiens, U-87 MG; U87; QBS10072S 1 hour in PBS, TMZ 2 days, read day 7; read-out: LC50 (μM ± SD)
Description: (§2) In vitro activities of QBS10072S and temozolomide (TMZ) in U87 and U87-MGMT cells were assessed using the WST1 cell viability assay in 96-well plates in which 500/well of cells were plated in sextuplets for each condition. To avoid cell loss, the following washing and medium removing procedures were all done using a P200 pipet without vacuum aspiration. For QBS10072S treatment, cells were washed with PBS the next day and incubated with 50 μL of various concentrations of QBS10072S in PBS for 1 hour at 37°C. After incubation, 150 μL of growth medium was added to each well. The medium was subsequently changed every two days until day 7. For TMZ treatment, cells were treated with 100 μL of various concentrations of TMZ in a growth medium for 2 days. After incubation, cells were put back in a normal growth medium and continued culturing for five days. In the end, 10 μL of WST1 reagent was added to each well and incubated at 37°C for 4h before subjecting to plate reading at 450 nm and 690nm using an EnSpire multimode plate reader (PerkinElmer). Background (OD690nm) was subtracted and data were normalized to the control. LC50s were determined by non-linear regression using GraphPad Prism (GraphPad Software Inc., San Diego, California)

U87-MGMT cells = assay: WST1 cell viability assay, U87-MGMT; type: cell-based; conditions: Homo sapiens; U87-MGMT; QBS10072S 1 hour in PBS, TMZ 2 days, read day 7; read-out: LC50 (μM ± SD)
Description: as §2

[2] = tested on: U251 intracerebral human GBM xenograft; assay: U251 intracerebral human GBM xenograft in athymic mice (BLI, survival); type: in vivo, mouse; conditions: temozolomide 4 mg/kg oral gavage daily for 5 days plus RT 1.5 Gy daily for 5 days; vehicle 35
Description: Five-week-old female athymic mice (nu/nu, homozygous: Simonsen Laboratories, Gilroy, CA), housed under aseptic conditions, received intracranial tumor cell injection as previously described and as approved by the University of California San Francisco Institutional Animal Care and Use Committee, Protocol #: AN111064-03. Briefly, mice were anesthetized by intraperitoneal injection of ketamine (100 mg/kg) and xylazine (10 mg/kg) and injected with 3 μL of tumor cell suspension (300,000 cells total) into the right caudate-putamen. Coordinates: 3 mm to the right from bregma, on top of the coronal suture, and 3.5 mm depth. Injection rate: ~30 second/uL. For treatment studies, eight mice were used for each group for LN229 studies and nine mice per group for U251 studies. Treatments began when tumors entered the log-phase of growth as measured by luminescence, for the LN229 experiment on Day 21 and for U251 experiments on Day 14.
Dosing levels and frequency are described in the figure legends.
For bioluminescence imaging (BLI), mice were anesthetized as above, then administered 150 mg/kg of luciferin (D-luciferin potassium salt, Gold Biotechnology, St. Louis, MO) via intraperitoneal injection. Ten minutes after luciferin injection, mice were examined for tumor bioluminescence with an IVIS Lumina imaging station and Living Image software (Caliper Life Sciences, Alameda, CA), and regions of interest were recorded as photons per second per steradian per square cm.
Mice were anesthetized via inhalation of 2.5% isoflurane with 1 L of oxygen per minute for five minutes prior to being positioned on an irradiation platform located 16.3 cm from a cesium-137 source (JL Shepherd & Associates, San Fernando, CA). Eyes, respiratory tracts, and bodies were protected with lead shielding. Mice received whole-brain irradiation at a dose rate of 247 cGy/min until 1.5 Gy radiation had been administered. After irradiation, animals were monitored until recovery. Mice were irradiated once daily for five consecutive days. All mice received the first radiation dose when tumors were in a log-phase growth (Day 14) as determined by BLI.
Tumor-bearing mice were treated with temozolomide (TMZ) 4 mg/kg via oral gavage, starting on day 14 post U251 cell injection once daily for five days - concurrent therapy with RT. TMZ was obtained from the UCSF hospital pharmacy and formulated with the Ora-Plus suspending vehicle (Perrigo, Dublin, Ireland) with a working concentration of 1 mg/mL.

T1 sequence (Q01650 whole entry, one chain of several): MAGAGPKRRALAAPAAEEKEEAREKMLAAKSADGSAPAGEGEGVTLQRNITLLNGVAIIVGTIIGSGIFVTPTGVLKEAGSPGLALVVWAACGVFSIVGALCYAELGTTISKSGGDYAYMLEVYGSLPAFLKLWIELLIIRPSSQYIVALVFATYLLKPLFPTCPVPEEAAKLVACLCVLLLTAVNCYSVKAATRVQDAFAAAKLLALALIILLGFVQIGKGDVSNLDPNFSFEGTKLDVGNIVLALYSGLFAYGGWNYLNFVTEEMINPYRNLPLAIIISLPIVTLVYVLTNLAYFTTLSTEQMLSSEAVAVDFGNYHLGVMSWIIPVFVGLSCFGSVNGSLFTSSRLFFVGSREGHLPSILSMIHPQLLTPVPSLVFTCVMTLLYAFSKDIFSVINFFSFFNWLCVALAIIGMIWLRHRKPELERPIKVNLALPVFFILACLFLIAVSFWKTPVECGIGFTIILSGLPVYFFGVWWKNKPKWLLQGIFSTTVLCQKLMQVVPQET

Structure (SMILES)	IC50 (hLAT1) [µM]	IC50 (hLAT2) [µM]	CC50 at 30 min [1] [µM]	CC50 (U87 cells) [µM]	CC50 (U87-MGMT cells) [µM]	median survival time [2] [days]
N[C@@H](Cc1ccc(N(CCCl)CCCl)cc1)C(=O)O [Melphalan, melphalan, reference compound]	170	390	0.86			
Cn1nnc2c(C(N)=O)ncn2c1=O [TMZ, temozolomide, reference compound]				82.3 ± 10.5	> 200	48
